# Test results: PMC7751257 (mBio, 2020)
# Like-named read-outs stand apart in the source and are kept apart here. Bridge positions count the residues as written; N and C are the ends. Square brackets hold non-standard residues; d marks the D form. Peptide text beside a SMILES is read from it. S5 = C=CCCC[C@](C)(N)C(=O)O
# Tests used:
# [1] = tested on: pseudovirus NL4-3.Luc.R-E-/VSV-G; details: 24 h
# [2] = tested on: pseudovirus NL4-3.Luc.R-E-/VSV-G; details: 48 h
# [3] = α-Helical propensity by CD spectroscopy; format: physicochemical; details: 0.125 mg/ml peptide in 10 mM PBS, 25°C, 185 to 260 nm, calculated with CDNN software
# [4] = tested on: SARS-CoV-2 (US_WA-1/2020); format: cell-based
# [5] = tested on: pseudovirus NL4-3ΔEnv-NanoLuc/SARS-CoV-2; details: 24 h
# [6] = tested on: pseudovirus NL4-3ΔEnv-NanoLuc/SARS-CoV-2; details: 48 h
# [7] = Proteolytic stability in human plasma; details: pooled human plasma, pH 7.4, 2 μM, 37°C, time points 0, 10, 30, 60, 120 min, LC-MS/MS, duplicate
# [8] = reported for the control stapled peptide; cited from earlier work
Compound,IC50 [1],IC50 [2],% α-Helicity (185-260 nm) [3],IC100 [4],IC50 [5],IC50 [6],half-life (T1/2) in human plasma [7],% helicity [8]
"CC[C@H](C)[C@H](NC(=O)[C@@H](NC(C)=O)[C@@H](C)O)C(=O)N[C@@H](CCC(=O)O)C(=O)N[C@@H](CCC(=O)O)C(=O)N[C@@H](CCC(N)=O)C(=O)N[C@@H](C)C(=O)N[C@@H](CCCCN)C(=O)N[C@H](C(=O)N[C@@]1(C)CCC/C=C\CCC[C@@](C)(C(=O)N[C@@H](CC(N)=O)C(=O)N[C@@H](Cc2c[nH]cn2)C(=O)N[C@@H](CCC(=O)O)C(=O)N[C@@H](C)C(=O)N[C@@H](CCC(=O)O)C(=O)N[C@@H](CC(=O)O)C(=O)N[C@@H](CC(C)C)C(=O)N[C@@H](Cc2ccccc2)C(=O)N[C@@H](Cc2ccc(O)cc2)C(=O)N[C@@H](CCC(N)=O)C(=O)N[C@@]2(C)CCC/C=C\CCC[C@@](C)(C(=O)N[C@@H](Cc3c[nH]c4ccccc34)C(=O)N[C@@H](CC(N)=O)C(N)=O)NC(=O)[C@H](C)NC(=O)[C@H](CC(C)C)NC(=O)[C@H](CO)NC2=O)NC(=O)[C@H](CCCCN)NC(=O)[C@H](CC(=O)O)NC(=O)[C@H](CC(C)C)NC1=O)[C@@H](C)O [NYBSP-1] (Ac-TIEEQAKT[S5]LDK[S5]NHEAEDLFYQ[S5]SLA[S5]WN-NH2; staple (Z) 9-13, 24-28)",> 27.5 µM,> 27.5 µM,94%,17.2 µM,4.1 ± 0.26 µM,2.2 ± 0.14 µM,–,–
"CC(C)[N+](C)(CCOC(=O)C1c2ccccc2Oc2ccccc21)C(C)C [Propantheline bromide, propantheline bromide]",–,–,–,–,–,–,8 min,–
"CC(=O)N[C@@H](CC(=O)O)C(=O)N[C@@H](CC(N)=O)C(=O)N[C@@H](CCC(=O)O)C(=O)N[C@@]1(C)CCC/C=C\CCC[C@@](C)(C(=O)N[C@@H](Cc2ccc(O)cc2)C(=O)N[C@@H](Cc2c[nH]cn2)C(=O)N[C@@H](CC(C)C)C(=O)N[C@@]2(C)CCC/C=C\CCC[C@@](C)(C(=O)N[C@H](C(N)=O)C(C)C)NC(=O)[C@H](CC(N)=O)NC(=O)[C@H](Cc3ccccc3)NC(=O)[C@H](Cc3ccccc3)NC2=O)NC(=O)[C@H](Cc2ccccc2)NC(=O)[C@H](Cc2c[nH]c3ccccc23)NC(=O)[C@H](CCC(N)=O)NC1=O [StRIP16] (Ac-DNE[S5]QWF[S5]YHL[S5]FFN[S5]V-NH2; staple (Z) 4-8, 12-16)",> 43.5 µM,> 43.5 µM,–,–,> 43.5 µM,> 43.5 µM,–,38%
